Publication PMC7897990, “TriTOX: A novel Trichomonas vaginalis assay platform for high-throughput screening of compound libraries” (International Journal for Parasitology: Drugs and Drug …, 2021)
Where two headings read alike, the source gives them in different places.

How the values were obtained:
[1] = system: Trichomonas vaginalis G3 trophozoites
[2] = system: nontumorigenic neonatal foreskin fibroblast (NFF) cell line
[3] = HTS replicate 1, parasite screen 1 µg/mL
[4] = HTS replicate 2, parasite screen 1 µg/mL
[5] = NFF fibroblasts, single concentration 5 µg/mL
[6] = parasite screen at 1 µg/mL, replicate 1
[7] = parasite screen at 1 µg/mL, replicate 2
[8] = NFF_NS1 screen at 5 µg/mL, NFF cells
[9] = HTS single concentration, parasite screen 1 µg/mL, replicate 1
[10] = HTS single concentration, parasite screen 1 µg/mL, replicate 2
[11] = NFF_NS1 screen 5 µg/mL, single concentration
[12] = replicate 1, parasite screen at 1 µg/mL
[13] = replicate 2, parasite screen at 1 µg/mL

Question: Which T.vaginalis_%inb_Rep1 ([1]; HTS, parasite screen at 1 µg/mL, replicate 1) does the source give for `CCOCCO[C@@H]1CC[C@@H](C[C@@H](C)[C@@H]2CC(=O)[C@H](C)/C=C(\C)[C@@H](O)[C@@H](OC)C(=O)[C@H](C)C[C@H](C)/C=C/C=C/C=C(\C)[C@@H](OC)C[C@@H]3CC[C@@H](C)[C@@](O)(O3)C(=O)C(=O)N3CCCC[C@H]3C(=O)O2)C[C@H]1OC` [Umirolimus] here?
Answer: 9.81%

Question: And the T.vaginalis_%inb_Rep2 ([1]; HTS, parasite screen at 1 µg/mL, replicate 2)?
Answer: 13.47%

Question: And the NFF_Activity ([2]; NFF fibroblast screen at 5 µg/mL, A = active, I = inactive)?
Answer: I (otherwise these were reported as inactive (I))

Question: `CC[C@H]1/C=C/C=C/C[C@@H](C)[C@H](O)[C@@](C)(O)C(=O)[C@@H](C)[C@H](O)[C@@H](C)C(=O)[C@@H](C)[C@H](O)[C@@H](C)/C=C/C(=O)O[C@@H]2[C@H](C)[C@H](CC1)O[C@@]1(O[C@@H](C[C@@H](C)O)[C@@H](C)CC1=O)[C@H]2C` [Oligomycin B] was tested. Which T.vaginalis_%inb_Rep1 [1, 3] did it give?
Answer: 12.98%

Question: And the T.vaginalis_%inb_Rep2 [1, 4]?
Answer: 13.09%

Question: And the NFF_Activity [2, 5]?
Answer: I (otherwise these were reported as inactive (I))

Question: How did the T.vaginalis_%inb_Rep1 [1, 6] turn out when `CO[C@H]1[C@H](O)[C@@H](O)[C@H](n2c3c(Cl)cccc3c3c4c(c5c6cccc(Cl)c6[nH]c5c32)C(=O)NC4=O)O[C@@H]1CO` [BIA-R1075] was run?
Answer: 10.49%

Question: And the T.vaginalis_%inb_Rep2 [1, 7]?
Answer: 13.95%

Question: And the NFF_Activity [2, 8]?
Answer: I (otherwise these were reported as inactive (I))

Question: How did the T.vaginalis_%inb_Rep1 [1, 6] turn out when `COC(=O)C1=CO[C@@H](C)[C@@H]2CN3CCc4c([nH]c5cc(OC)c(OC)cc45)[C@H]3C[C@H]12` [BIA-R1946] was run?
Answer: 11.06%

Question: And the T.vaginalis_%inb_Rep2 [1, 7]?
Answer: 13.59%

Question: What about the NFF_Activity [2, 8] of the same compound?
Answer: I (otherwise these were reported as inactive (I))

Question: What does the source list for `CCCCCCCCCCCCCCCc1cc(O)cc(O)c1` [BIA-A1689]?
Answer: T.vaginalis_%inb_Rep1 [1, 9]: 16.26%; T.vaginalis_%inb_Rep2 [1, 10]: 11.86%; NFF_Activity [2, 11]: I (otherwise these were reported as inactive (I))

Question: `COc1cc(C)c(C(=O)O)c(OC)c1` [Orsellinic acid dimethylether] was tested. Which T.vaginalis_%inb_Rep1 [1, 3] did it give?
Answer: 12.73%

Question: What about the T.vaginalis_%inb_Rep2 [1, 4] of the same compound?
Answer: 13.02%

Question: And the NFF_Activity [2, 5]?
Answer: I (otherwise these were reported as inactive (I))

Question: What does the source list for `C=CC(C)(C)C12CC3C(=O)Nc4ccccc4C(=O)N3C1Nc1ccccc12` (stereo not drawn) [BIA-A1686]?
Answer: T.vaginalis_%inb_Rep1 [1, 9]: 14.16%; T.vaginalis_%inb_Rep2 [1, 10]: 12.87%; NFF_Activity [2, 11]: I (otherwise these were reported as inactive (I))

Question: For `COC(=O)c1cc(O)cc(OC)c1C(=O)c1c(O)cc(C)cc1O` [BIA-S1089], which T.vaginalis_%inb_Rep1 [1, 6] is on record?
Answer: 9.49%

Question: What about the T.vaginalis_%inb_Rep2 [1, 7] of the same compound?
Answer: 14.81%

Question: What about the NFF_Activity [2, 8] of the same compound?
Answer: A (active (A) compounds having >25% inhibitory activity)

Question: Which T.vaginalis_%inb_Rep1 [1, 12] does the source give for `CN=C1NC(=O)[C@H]([C@H](C)c2c[nH]c3ccccc23)O1` [BIA-I1040] here?
Answer: 25.76%

Question: What about the T.vaginalis_%inb_Rep2 [1, 13] of the same compound?
Answer: 5.58%

Question: What about the NFF_Activity ([2]; NFF cells, screen at 5 µg/mL) of the same compound?
Answer: I (otherwise these were reported as inactive (I))

Question: `C=C1c2cccc(O)c2C(O)=C2C(=O)C3(O)C(O)=C(C(N)=O)C(=O)C(N(C)C)C3C(O)C12` (stereo not drawn) [BIA-M1467] was tested. Which T.vaginalis_%inb_Rep1 [1, 12] did it give?
Answer: 12.78%

Question: What about the T.vaginalis_%inb_Rep2 [1, 13] of the same compound?
Answer: 4.43%

Question: And the NFF_Activity ([2]; NFF cells, screen at 5 µg/mL)?
Answer: I (otherwise these were reported as inactive (I))

Question: What does the source list for `O=C1CCC[C@@H]2[C@H]3C[C@@H](CN12)[C@@H]1CCCCN1C3` [BIA-L1951]?
Answer: T.vaginalis_%inb_Rep1 [1, 12]: 8.91%; T.vaginalis_%inb_Rep2 [1, 13]: 11.70%; NFF_Activity ([2]; NFF cells, screen at 5 µg/mL): I (otherwise these were reported as inactive (I))

Question: With `C=CC(C)(C)[C@@]12C[C@H]3C(=O)N/C(=C/c4c[nH]cn4)C(=O)N3[C@@H]1Nc1ccccc12` [BIA-R1083] as the compound, how does the T.vaginalis_%inb_Rep1 [1, 6] read?
Answer: 13.69%

Question: And the T.vaginalis_%inb_Rep2 [1, 7]?
Answer: 4.87%

Question: What about the NFF_Activity [2, 8] of the same compound?
Answer: A (active (A) compounds having >25% inhibitory activity)

Question: Which results are given for `CN1CCC2(c3cccc4c3NC3N(C)CCC43C34CCN(C)C3Nc3ccccc34)c3ccccc3NC12` (stereo not drawn) [BIA-H1948]?
Answer: T.vaginalis_%inb_Rep1 [1, 12]: 8.81%; T.vaginalis_%inb_Rep2 [1, 13]: 5.36%; NFF_Activity ([2]; NFF cells, screen at 5 µg/mL): A (active (A) compounds having >25% inhibitory activity)

Question: Which results are given for `CN[C@@H]1C[C@H]2O[C@@](C)([C@@H]1OC)n1c3ccccc3c3c4c(c5c6ccccc6n2c5c31)C(=O)NC4=O` [BIA-O1137]?
Answer: T.vaginalis_%inb_Rep1 [1, 9]: 63.59%; T.vaginalis_%inb_Rep2 [1, 10]: 75.50%; NFF_Activity [2, 11]: A (active (A) compounds having >25% inhibitory activity)
